PubChem BioAssay AID248 (DTP/NCI, 2004)
Several values for one entry are separate records, joined by “and”; a condition that tells them apart may be missing. Equal entries are not always repeated. Inconclusive results and toxic doses are left out. No stated cut-off is given here; in the data, active means T/C of 150% or more; inactive means T/C below 125%.

System: L1210 leukemia ip in BDF1 mice, survival T/C
Assay: NCI In Vivo Anticancer Drug Screen. Data for tumor model L1210 Leukemia (intraperitoneal) in B6D2F1 (BDF1) mice
Details: endpoint: mean survival time, higher = longer survival
Outline: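 In this screen, tumor-bearing mice given compound are compared to those given vehicle, and their survival values are reported as a treated-to-control quotient.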

[1] = dose: 100.0 mg/kg/injection, schedule: Q01DX001 (ip), vehicle: carboxymethylcellulose (CMC)
[2] = dose: 50.0 mg/kg/injection, schedule: Q01DX009 (ip), vehicle: saline with Tween-80
[3] = dose: 100.0 mg/kg/injection, schedule: Q01DX009 (ip), vehicle: saline with Tween-80
[4] = dose: 100.0 mg/kg/injection, schedule: Q04DX003 (ip), vehicle: saline with Tween-80
[5] = dose: 200.0 mg/kg/injection, schedule: Q04DX003 (ip), vehicle: saline with Tween-80
[6] = dose: 200.0 mg/kg/injection, schedule: Q01DX009 (ip), vehicle: saline with Tween-80
[7] = dose: 25.0 mg/kg/injection, schedule: Q04DX002 (ip), vehicle: Klucel (hydroxypropylcellulose) (HPC)
[8] = dose: 50.0 mg/kg/injection, schedule: Q04DX002 (ip), vehicle: Klucel (hydroxypropylcellulose) (HPC)
[9] = dose: 100.0 mg/kg/injection, schedule: Q04DX002 (ip), vehicle: Klucel (hydroxypropylcellulose) (HPC)
[10] = dose: 50.0 mg/kg/injection, schedule: Q04DX003 (ip), vehicle: saline
[11] = dose: 100.0 mg/kg/injection, schedule: Q01DX009 (ip), vehicle: saline
[12] = dose: 100.0 mg/kg/injection, schedule: Q04DX003 (ip), vehicle: saline
[13] = dose: 12.5 mg/kg/injection, schedule: Q04DX003 (ip), vehicle: saline
[14] = dose: 25.0 mg/kg/injection, schedule: Q04DX003 (ip), vehicle: saline
[15] = dose: 6.25 mg/kg/injection, schedule: Q01DX009 (ip), vehicle: saline
[16] = dose: 12.5 mg/kg/injection, schedule: Q01DX009 (ip), vehicle: saline
[17] = dose: 25.0 mg/kg/injection, schedule: Q01DX009 (ip), vehicle: saline
[18] = dose: 100.0 mg/kg/injection, schedule: Q01DX009 (ip), vehicle: Klucel (hydroxypropylcellulose) (HPC)
[19] = dose: 200.0 mg/kg/injection, schedule: Q01DX009 (ip), vehicle: Klucel (hydroxypropylcellulose) (HPC)

Measured: T/C

O=P(N1CC1)(N1CC1)N(CCCCN(Cc1ccccc1)P(=O)(N1CC1)N1CC1)Cc1ccccc1
inactive: dose: 10.0 mg/kg/injection, schedule: Q01DX001 (ip), vehicle: carboxymethylcellulose (CMC) 104 % of control | dose: 20.0 mg/kg/injection, schedule: Q01DX001 (ip), vehicle: carboxymethylcellulose (CMC) 101 % of control | dose: 40.0 mg/kg/injection, schedule: Q01DX001 (ip), vehicle: carboxymethylcellulose (CMC) 104 % of control | dose: 80.0 mg/kg/injection, schedule: Q01DX001 (ip), vehicle: carboxymethylcellulose (CMC) 106 % of control | [1] 92 % of control

CC[C@]12CN3CCc4c([nH]c5ccccc45)[C@@](C(=O)OC)(c4cc5c(cc4OC)N(C)[C@H]4[C@@](O)(C(=O)OC)[C@H](OC(C)=O)[C@]6(CC)C=CCN7CC[C@]54[C@@H]76)CC(C3)[C@H]1O2 (stereo not given in full)
inactive: dose: 0.37 mg/kg/injection, schedule: Q01DX009 (ip), vehicle: saline 108 % of control | dose: 0.75 mg/kg/injection, schedule: Q01DX009 (ip), vehicle: Klucel (hydroxypropylcellulose) (HPC) 100 % of control | dose: 1.5 mg/kg/injection, schedule: Q01DX002 (ip), vehicle: saline 108 % of control | dose: 1.5 mg/kg/injection, schedule: Q01DX009 (ip), vehicle: Klucel (hydroxypropylcellulose) (HPC) 105 % of control | dose: 1.5 mg/kg/injection, schedule: Q01DX009 (ip), vehicle: saline 97 % of control and 108 % of control and 114 % of control | dose: 3.0 mg/kg/injection, schedule: Q01DX002 (ip), vehicle: saline 115 % of control | dose: 3.0 mg/kg/injection, schedule: Q01DX009 (ip), vehicle: Klucel (hydroxypropylcellulose) (HPC) 110 % of control | dose: 6.0 mg/kg/injection, schedule: Q01DX002 (ip), vehicle: saline 117 % of control | dose: 6.0 mg/kg/injection, schedule: Q01DX009 (ip), vehicle: Klucel (hydroxypropylcellulose) (HPC) 107 % of control | dose: 12.0 mg/kg/injection, schedule: Q01DX009 (ip), vehicle: Klucel (hydroxypropylcellulose) (HPC) 115 % of control | dose: 12.0 mg/kg/injection, schedule: Q01DX009 (ip), vehicle: saline 95 % of control | dose: 16.5 mg/kg/injection, schedule: Q04DX003 (ip), vehicle: saline with Tween-80 106 % of control | dose: 37.5 mg/kg/injection, schedule: Q04DX003 (ip), vehicle: saline 94 % of control

O=C(/C=C(\Cl)C(=O)NO)NO
inactive: dose: 100.0 mg/kg/injection, schedule: Q01DX009 (ip), vehicle: acetone 102 % of control

CCOC(=O)N/N=C\c1cc(OC)c(OC)c(OC)c1
inactive: [2] 103 % of control | [3] 98 % of control | [4] 102 % of control | [5] 103 % of control

CCC1CN2CCc3cc(OC)c(OC)cc3C2CC1=O (stereo not given)
inactive: [2] 102 % of control | [3] 103 % of control and 108 % of control | [6] 124 % of control

O=S(=O)(c1ccccc1)C(CC(S(=O)(=O)c1ccccc1)S(=O)(=O)c1ccccc1)S(=O)(=O)c1ccccc1
inactive: dose: 100.0 mg/kg/injection, schedule: Q04DX002 (ip), vehicle: saline with Tween-80 119 % of control | dose: 200.0 mg/kg/injection, schedule: Q04DX002 (ip), vehicle: saline with Tween-80 97 % of control | dose: 400.0 mg/kg/injection, schedule: Q04DX002 (ip), vehicle: saline with Tween-80 90 % of control

Cc1cccc(C(=O)OCc2ccccc2CN2CCCCC2)c1
inactive: [7] 105 % of control | [8] 105 % of control | [9] 105 % of control

CC1Oc2ccccc2OC1C(=O)NN (stereo not given)
inactive: [4] 95 % of control | [5] 97 % of control | dose: 400.0 mg/kg/injection, schedule: Q04DX003 (ip), vehicle: saline with Tween-80 106 % of control

NC(=S)NNC(=O)c1ccncc1
inactive: dose: 100.0 mg/kg/injection, schedule: Q01DX001 (ip), vehicle: saline 96 % of control | dose: 200.0 mg/kg/injection, schedule: Q01DX001 (ip), vehicle: saline 96 % of control | dose: 400.0 mg/kg/injection, schedule: Q01DX001 (ip), vehicle: saline 91 % of control

COc1cc2ccc3cc[n+](C)cc3c2cc1OC
inactive: [10] 104 % of control | dose: 66.0 mg/kg/injection, schedule: Q01DX009 (ip), vehicle: saline 121 % of control | [11] 110 % of control | [12] 98 % of control and 104 % of control | dose: 150.0 mg/kg/injection, schedule: Q01DX009 (ip), vehicle: saline 96 % of control | dose: 200.0 mg/kg/injection, schedule: Q04DX003 (ip), vehicle: saline 110 % of control | dose: 400.0 mg/kg/injection, schedule: Q04DX003 (ip), vehicle: saline 102 % of control

COc1ccc(C(C)CO)cc1 (stereo not given)
inactive: [2] 102 % of control | [3] 94 % of control | [6] 102 % of control

C[N+](C)(C)c1ccc(N2C(=O)C3C4c5ccccc5C(C3C2=O)[n+]2ccccc24)cc1 (stereo not given)
inactive: dose: 1.56 mg/kg/injection, schedule: Q01DX009 (ip), vehicle: Klucel (hydroxypropylcellulose) (HPC) 103 % of control | dose: 3.12 mg/kg/injection, schedule: Q01DX009 (ip), vehicle: Klucel (hydroxypropylcellulose) (HPC) 97 % of control | dose: 6.25 mg/kg/injection, schedule: Q01DX009 (ip), vehicle: Klucel (hydroxypropylcellulose) (HPC) 100 % of control | [13] 101 % of control | [14] 94 % of control

CN(C)CCC(c1ccccc1)c1cc(Cl)ccn1 (stereo not given)
inactive: [15] 95 % of control | [16] 97 % of control | [13] 106 % of control | [17] 95 % of control | [14] 103 % of control | dose: 50.0 mg/kg/injection, schedule: Q01DX009 (ip), vehicle: saline 97 % of control | [10] 103 % of control | [11] 100 % of control | [12] 106 % of control

Cc1cc(=O)oc2cc(OCc3ccccc3)cc(O)c12
inactive: dose: 75.0 mg/kg/injection, schedule: Q01DX001 (ip), vehicle: other 103 % of control | dose: 150.0 mg/kg/injection, schedule: Q01DX001 (ip), vehicle: other 108 % of control | dose: 300.0 mg/kg/injection, schedule: Q01DX001 (ip), vehicle: other 108 % of control

CCCCN(CC)CC#N
inactive: [15] 104 % of control | [16] 101 % of control | [13] 94 % of control | [17] 93 % of control | [14] 89 % of control

CCSCCOP(=O)(N(C)C)N(C)C
inactive: [7] 96 % of control | [8] 96 % of control | [9] 93 % of control and 98 % of control

O=C(N/N=C/c1ccccc1)C(Oc1ccccc1)c1ccccc1 (stereo not given)
inactive: [1] 94 % of control | dose: 200.0 mg/kg/injection, schedule: Q01DX001 (ip), vehicle: carboxymethylcellulose (CMC) 94 % of control | dose: 400.0 mg/kg/injection, schedule: Q01DX001 (ip), vehicle: carboxymethylcellulose (CMC) 100 % of control

CC(C)(C)C(=O)OCn1cnc2c(=N)n(O)cnc21
inactive: dose: 50.0 mg/kg/injection, schedule: Q01DX009 (ip), vehicle: Klucel (hydroxypropylcellulose) (HPC) 103 % of control | [18] 100 % of control | dose: 100.0 mg/kg/injection, schedule: Q04DX003 (ip), vehicle: Klucel (hydroxypropylcellulose) (HPC) 97 % of control | [19] 101 % of control | dose: 200.0 mg/kg/injection, schedule: Q04DX003 (ip), vehicle: Klucel (hydroxypropylcellulose) (HPC) 108 % of control

O=C(c1ccc(F)cc1)c1ccc2ccccc2c1
inactive: [18] 98 % of control | dose: 100.0 mg/kg/injection, schedule: Q04DX003 (ip), vehicle: other 97 % of control | [19] 95 % of control | dose: 200.0 mg/kg/injection, schedule: Q04DX003 (ip), vehicle: other 94 % of control | dose: 400.0 mg/kg/injection, schedule: Q01DX009 (ip), vehicle: Klucel (hydroxypropylcellulose) (HPC) 92 % of control | dose: 400.0 mg/kg/injection, schedule: Q04DX003 (ip), vehicle: other 94 % of control

O=C1CCSC1
inactive: [2] 87 % of control | [3] 98 % of control | [6] 98 % of control
